Like-named read-outs stand apart in the source and are kept apart here.

The text below walks through data of US20220394979A1 (priority 2021, published 2022).

For data set [1], the system named is C. perfringes. As to conditions: Ammonia at 0.1% w/w.
Data set [2] concerns parasites and protozoan oocysts. The conditions noted are these: 20,000 mg/L ammonium phosphate, NH3 30 mg/L at pH 7.4, 300 mg/L at pH 8.4, cited from earlier work.
For data set [3] the following is noted: recommended storage conditions; cited from earlier work.
In data set [4] the test system is bacteria. The conditions noted are these: quat 0.5% (5 g/L), cited from earlier work.
The test system of data set [5] is virus. As to conditions: quat 0.5% (5 g/L), cited from earlier work.

Regarding `N` [Ammonia], the “level of C. perfringes after treatment” value in data set [1] (raw biosolids at 1×10^7) was “less than 2×10^2”. The “log reduction of spore forming bacteria and parasites” value in data set [1] (raw biosolids) is “five log reductions”.
Consider `N.N.O=P(O)(O)O` [Ammonium Phosphate/Nonionized Ammonia, Ammonium Phosphate Dibasic], for which the “Degree of Inactivation: log reduction of parasites and protozoan oocysts” value in data set [2] was 6 log reduction of parasites and; in data set [2] (listed as Ammonium Phosphate), 6 log reduction of. Also, in data set [3], the Storage stability entry is recorded as “Stable under recommended storage”.
As to “C12-C14-alkyl (ethylbenzyl) dimethyl ammonium chloride [Quaternary Amines]”, the “Degree of Inactivation: log reduction of bacteria” value was 9 log reduction of bacteria in data set [4] and 9 log reduction of in data set [4] (listed as Quats). Also, the “Degree of Inactivation: log reduction of virus” value is 6 log reduction, of virus in data set [5] and 6 log reduction. of in data set [5] (listed as Quats).
